Reference: patent US11400058B2, “Intravenous formulations of coenzyme Q10 (CoQ10) and methods of use thereof” (Berg LLC, priority 2010, dated 2022)
Marks after values point to notes of the source that are not given here.

Assay: 4-week repeat-dose toxicology study in rats with 2-week recovery (Study 20000328)
[1] = 125 mg/kg M, end of dosing, animals affected
[2] = 125 mg/kg M, end of dosing, animals of 10
[3] = 125 mg/kg M, end of recovery, animals of 5
[4] = 250 mg/kg F, end of dosing, animals of 10

## COC1=C(OC)C(=O)C(C/C=C(\C)CC/C=C(\C)CC/C=C(\C)CC/C=C(\C)CC/C=C(\C)CC/C=C(\C)CC/C=C(\C)CC/C=C(\C)CC/C=C(\C)CCC=C(C)C)=C(C)C1=O [CoQ10, Coenzyme Q10]
125 mg/kg M, end of dosing
  Erythrocytes: 7.59* 10^6/cmm
  Food Consumption, percent difference from controls: −9.2* %
  GGT: 0.09 IU/L
  Hematocrit: 41.6* %
  Hemoglobin: 14.3 g/dL
  Leukocytes: 11.03 10^3/cmm
  Liver weight (absolute), percent difference from controls: −7.2%
  Lymphocytes: 8.70* 10^3/cmm
  Neutrophils: 1.71 10^3/cmm
  Spleen weight (absolute), percent difference from controls: −23.4%
[1]
  Injection Site Mononuclear Cell Infiltration: 1
  Injection Site Mononuclear Cell Infiltration, Marked: 1
  Injection Site Mononuclear Cell Infiltration, Mild: 0
  Injection Site Mononuclear Cell Infiltration, Minimal: 0
  Injection Site Mononuclear Cell Infiltration, Moderate: 0
[2]
  Bone Marrow, Sternum Hyperplasia: 2
  Bone Marrow, Sternum Hyperplasia, Mild: 0
  Bone Marrow, Sternum Hyperplasia, Minimal: 2
  Gross Pathology: Enlarged Pancreatic Lymph Nodes: 1
  Gross Pathology: Pale Adrenal: 0
  Gross Pathology: Pale Liver: 9
  Gross Pathology: Pale Lymph Nodes: 4
  Gross Pathology: Pale Pituitary: 0
  Gross Pathology: Pale SQ Skin: 1
  Liver Focal Necrosis: 0
  Liver Focal Necrosis, Minimal: 0
  Liver Histiocytic Infiltration: 6
  Liver Histiocytic Infiltration, Mild: 3
  Liver Histiocytic Infiltration, Minimal: 3
  Liver Histiocytic Infiltration, Moderate: 0
  Liver Vacuolation: 8
  Liver Vacuolation, Mild: 4
  Liver Vacuolation, Minimal: 4
  Lymph Node, Man. Histiocytic Infiltration: 7
  Lymph Node, Man. Histiocytic Infiltration, Mild: 4
  Lymph Node, Man. Histiocytic Infiltration, Minimal: 3
  Lymph Node, Man. Histiocytic Infiltration, Moderate: 0
  Lymph Node, Mes. Histiocytic Infiltration: 10
  Lymph Node, Mes. Histiocytic Infiltration, Mild: 6
  Lymph Node, Mes. Histiocytic Infiltration, Minimal: 4
  Lymph Node, Mes. Histiocytic Infiltration, Moderate: 0
  Skin, Dermis Histiocytic Infiltration: 1
  Skin, Dermis Histiocytic Infiltration, Marked: 1
  Skin, Dermis Histiocytic Infiltration, Mild: 0
  Skin, Dermis Histiocytic Infiltration, Moderate: 0
  Skin, SQ Histiocytic Infiltration: 0
  Skin, SQ Histiocytic Infiltration, Mild: 0
  Spleen Histiocytic Infiltration: 8
  Spleen Histiocytic Infiltration, Marked: 0
  Spleen Histiocytic Infiltration, Mild: 5
  Spleen Histiocytic Infiltration, Moderate: 3
125 mg/kg M, end of recovery
  ALT: 27 IU/L
  APPT: 15.9* seconds
  AST: 94 IU/L
  Body Weight, percent difference from controls: −2.2%
  Food Consumption, percent difference from controls: +1.2%
  GGT: 0.00 IU/L
  Liver weight (absolute), percent difference from controls: −2.5%
  Spleen weight (absolute), percent difference from controls: +5.9%
[3]
  Adrenal Gland Vacuolation: 5
  Adrenal Gland Vacuolation, Marked: 0
  Adrenal Gland Vacuolation, Mild: 2
  Adrenal Gland Vacuolation, Minimal: 0
  Adrenal Gland Vacuolation, Moderate: 3
  Gross Pathology: Enlarged Spleen: 1
  Gross Pathology: Pale Iliac Lymph Node: 2
  Gross Pathology: Pale Liver: 5
  Gross Pathology: Pale Pancreatic Lymph Node: 2
  Liver Focal Necrosis: 3
  Liver Focal Necrosis, Mild: 1
  Liver Focal Necrosis, Minimal: 2
  Liver Histiocytic Infiltration: 5
  Liver Histiocytic Infiltration, Mild: 1
  Liver Histiocytic Infiltration, Minimal: 4
  Liver Histiocytic Infiltration, Moderate: 0
  Liver Multifocal Necrosis: 0
  Liver Multifocal Necrosis, Mild: 0
  Liver Multifocal Necrosis, Moderate: 0
  Liver Vacuolation: 5
  Liver Vacuolation, Mild: 4
  Liver Vacuolation, Minimal: 1
  Liver Vacuolation, Moderate: 0
  Lymph Node, Man. Histiocytic Infiltration: 5
  Lymph Node, Man. Histiocytic Infiltration, Mild: 2
  Lymph Node, Man. Histiocytic Infiltration, Minimal: 3
  Lymph Node, Man. Histiocytic Infiltration, Moderate: 0
  Lymph Node, Mes. Histiocytic Infiltration: 5
  Lymph Node, Mes. Histiocytic Infiltration, Mild: 1
  Lymph Node, Mes. Histiocytic Infiltration, Minimal: 3
  Spleen Histiocytic Infiltration: 3
  Spleen Histiocytic Infiltration, Marked: 0
  Spleen Histiocytic Infiltration, Mild: 1
  Spleen Histiocytic Infiltration, Minimal: 2
  Spleen Histiocytic Infiltration, Moderate: 0
250 mg/kg F, animals of 15
  Died or Sacrificed Moribund: 0
250 mg/kg F, end of dosing
  ALT: 22 IU/L
  APPT: 14.5* seconds
  AST: 88 IU/L
  Body Weight, percent difference from controls: −8.9* %
  Eosinophils: 0.10 10^3/cmm
  Erythrocytes: 6.12 10^6/cmm
  Food Consumption, percent difference from controls: −18.3* %
  GGT: 0.25 IU/L
  Hematocrit: 39.2* %
  Hemoglobin: 13.2 g/dL
  Leukocytes: 13.15* 10^3/cmm
  Liver weight (absolute), percent difference from controls: +14.5* %
  Lymphocytes: 10.50* 10^3/cmm
  Neutrophils: 1.97* 10^3/cmm
  Spleen weight (absolute), percent difference from controls: +51.0* %
[4]
  Adrenal Gland Vacuolation: 10
  Adrenal Gland Vacuolation, Mild: 3
  Adrenal Gland Vacuolation, Minimal: 0
  Adrenal Gland Vacuolation, Moderate: 7
  Bone Marrow, Sternum Hyperplasia: 0
  Bone Marrow, Sternum Hyperplasia, Mild: 0
  Bone Marrow, Sternum Hyperplasia, Minimal: 0
  Gross Pathology: Enlarged Pancreatic Lymph Nodes: 1
  Gross Pathology: Pale Adrenal: 2
  Gross Pathology: Pale Liver: 10
  Gross Pathology: Pale Lymph Nodes: 7
  Gross Pathology: Pale Ovaries: 9
  Gross Pathology: Pale Pituitary: 0
  Gross Pathology: Pale SQ Skin: 4
  Injection Site Mononuclear Cell Infiltration: 10
  Injection Site Mononuclear Cell Infiltration, Marked: 2
  Injection Site Mononuclear Cell Infiltration, Mild: 1
  Injection Site Mononuclear Cell Infiltration, Minimal: 0
  Injection Site Mononuclear Cell Infiltration, Moderate: 7
  Liver Focal Necrosis: 0
  Liver Focal Necrosis, Minimal: 0
  Liver Histiocytic Infiltration: 9
  Liver Histiocytic Infiltration, Mild: 5
  Liver Histiocytic Infiltration, Minimal: 4
  Liver Histiocytic Infiltration, Moderate: 0
  Liver Vacuolation: 10
  Liver Vacuolation, Mild: 10
  Liver Vacuolation, Minimal: 0
  Lymph Node, Man. Histiocytic Infiltration: 9
  Lymph Node, Man. Histiocytic Infiltration, Mild: 1
  Lymph Node, Man. Histiocytic Infiltration, Minimal: 7
  Lymph Node, Man. Histiocytic Infiltration, Moderate: 1
  Lymph Node, Mes. Histiocytic Infiltration: 9
  Lymph Node, Mes. Histiocytic Infiltration, Mild: 4
  Lymph Node, Mes. Histiocytic Infiltration, Minimal: 5
  Lymph Node, Mes. Histiocytic Infiltration, Moderate: 0
  Ovary Histiocytic Infiltration: 10
  Ovary Histiocytic Infiltration, Mild: 6
  Ovary Histiocytic Infiltration, Minimal: 0
  Ovary Histiocytic Infiltration, Moderate: 4
  Skin, Dermis Histiocytic Infiltration: 2
  Skin, Dermis Histiocytic Infiltration, Marked: 0
  Skin, Dermis Histiocytic Infiltration, Mild: 0
  Skin, Dermis Histiocytic Infiltration, Moderate: 2
  Skin, SQ Histiocytic Infiltration: 0
  Skin, SQ Histiocytic Infiltration, Mild: 0
